Experimental data from patent publication US20050119197A1, “Naadp analogues for modulating t-cell activity” (priority 2000, published 2005).

Tests used:
Assay type in all cases: cell-based, human
[1] = test system: NAADP^+-mediated Ca^2+-signaling; assay: Co-injection of antagonists with NAADP^+: influence on NAADP^+-mediated Ca^2+-signaling in Jurkat T-lymphocytes
Description: (§1) Jurkat T-lymphocytes were loaded with Fura2/AM and ratiometric Ca^2+ imaging and parallel microinjection in the presence of 1 mM extracellular Ca^2+ was carried out as detailed under ‘Experimental Procedures’. […] Shown are (n=number of experiments): A/F, coinjection of NAADP (50 nM) and 8-OCH3-cADPR (100 μM) (n=7); B/G, injection of NAADP^+ (50 nM, n=10); C/H, coinjection of NAADP^+ (10 μM) and cADPR (10 μM) (n=7); D/I, coinjection of NAADP^+ (50 nM) and cADPR (10 μM) (n=5); E/J, injection of cADPR (10 μM, n=5).
(§2) Jurkat T-lymphocytes were loaded with Fura2/AM and ratiometric Ca^2+ imaging and parallel microinjection in the presence of 1 mM extracellular Ca^2+ was carried out as detailed under ‘Experimental Procedures’. […] Shown are: A/F, coinjection of NAADP^+ (50 nM) and […] (40 μM) (n=7); B/G, injection of NAADP^+ (50 nM) (n=10); C/H, coinjection of NAADP^+ (10 μM) and Ins(1,4,5)P3 (4 μM) (n=9); D/I, coinjection of NAADP^+ (50 nM) and Ins(1,4,5)P3 (4 μM) (n=3); E/J injection of Ins(1,4,5)P3 (4 μM; n=8)
Batches of 10^7 Jurkat T cells were loaded with Fura2/AM as described (Guse et al., 1993). Fura2-loaded cells (10^7 cells/5 ml) were kept at room temperature until use. Glass coverslips were coated first with bovine serum albumin (5 mg/ml), and then with poly-L-lysine (0.1 mg/ml). Small chambers consisting of a rubber O-ring were sealed on the coverslips by silicon grease. Then 90 μl of extracellular buffer (140 mM NaCl, 5 mM KCl, 1 mM MgSO4, 1 mM CaCl2, 20 mM Hepes, 1 mM NaH2PO4, 5.5 mM glucose, pH 7.4) was added, followed by addition of 10 μl cell suspension. The coverslip was mounted on the stage of an inverted microscope (Axiovert 100, Zeiss, Oberkochingen, Germany). Ratiometric Ca^2+-imaging was performed using a PhotoMed/Photon Technology (Wedel, Germany) digital imaging system built around the Axiovert 100 microscope. Illumination at 340 and 380 nm was carried out using a chopper/optical filter system. […] Ratio images (340/380) were constructed pixel by pixel, and changes in the ratio over time were measured by applying “regions-of-interest” on individual cells. […]

Jurkat T cells [2] = assay: Ca^2+ signals in single intact Jurkat T-lymphocytes microinjected with compound (ratiometric Fura2 Ca^2+ imaging); conditions: for Ca^2+ signal after microinjection: 1 mM extracellular Ca^2+
Description: Jurkat T-lymphocytes were loaded with Fura2/AM and Ca^2+ was measured as detailed under ‘Experimental Procedures’. Cells were injected as described in Experimental Procedures’ in the presence of 1 mM extacellular Ca^2+. Data are presented as overlays of single tracings of individual cells (left panel). […] As a control vehicle buffer without NAADP^+ was injected (A,B). The time point of microinjection is indicated by arrows.
Data from FIG. 1 are shown as mean values (n=5 to 17) from time point 80 sec (Ca^2+ peak; A) or 400 sec (Ca^2+ plateau; B).
Jurkat T-lymphocytes were loaded with Fura2/AM and ratiometric Ca^2+ imaging and parallel microinjection in the presence of 1 mM extracellular Ca^2+ was carried out as detailed under ‘Experimental Procedures’. Cells were injected with 50 nM NAADP^+ (A) or NADP^+ (B). Shown are the averages from 13 (A) and 5 (B) cells. The time point of microinjection is indicated by arrows.
Jurkat T lymphocytes (subclone JMP) were cultured in RPMI 1640 medium containing the following additions: Glutamax I, HEPES (20 mM, pH 7.4), NCS (7.5%), penicillin (100 U/ml) and streptomycin (50 μg/ml; all obtained from Life Technologies, Eggenstein, Germany). The cells were cultured at 37° C. in a humidified atmosphere in the presence of 5% CO2.
Batches of 10^7 Jurkat T cells were loaded with Fura2/AM as described (Guse et al., 1993). Fura2-loaded cells (10^7 cells/5 ml) were kept at room temperature until use. Glass coverslips were coated first with bovine serum albumin (5 mg/ml), and then with poly-L-lysine (0.1 mg/ml). Small chambers consisting of a rubber O-ring were sealed on the coverslips by silicon grease. Then 90 μl of extracellular buffer (140 mM NaCl, 5 mM KCl, 1 mM MgSO4, 1 mM CaCl2, 20 mM Hepes, 1 mM NaH2PO4, 5.5 mM glucose, pH 7.4) was added, followed by addition of 10 μl cell suspension. The coverslip was mounted on the stage of an inverted microscope (Axiovert 100, Zeiss, Oberkochingen, Germany). Ratiometric Ca^2+-imaging was performed using a PhotoMed/Photon Technology (Wedel, Germany) digital imaging system built around the Axiovert 100 microscope. Illumination at 340 and 380 nm was carried out using a chopper/optical filter system. Images were captured by an intensified CCD camera (type C2400-77; spatial resolution: 525×487 pixel; Hamamatsu, Garching, Germany) and stored as individual 340 and 380 images on harddisk. Sampling rate was usually 5 sec for a pair of images (340 and 380 nm) using 100-fold magnification. Data analysis was performed off-line using PhotoMed/Photon Technology (Wedel, Germany) “Image master” analysis software. Ratio images (340/380) were constructed pixel by pixel, and changes in the ratio over time were measured by applying “regions-of-interest” on individual cells. Finally, ratio values were converted to Ca^2+-concentrations by external calibration.
Parallel Ca^2+ imaging and microin ection experiments require a firm attachment of the Jurkat T cells without preactivation of intracellular Ca^2+-signaling. This was achieved by the above mentioned coating procedure of the glass coverslips, as detailed earlier (Guse et al., 1997). The cells were kept in a small chamber (100 μl volume) in extracellular buffer (140 mM NaCl, 5 mM KCl, 1 mM MgSO4, 1 mM CaCl2, 20 mM Hepes, 1 mM NaH2PO4, 5.5 mM glucose, pH 7.4). Compounds to be microinjected were cleared from particles by either filtration through 0.45 μm filters, by centrifugation in an Eppendorf centrifuge at maximal speed for 10 min, or by both. Femtotips II (Eppendorf-Netheler-Hintz, Hamburg, Germany) were filled with 5 μl of reagent solution and inserted into the semi-automatic Eppendorf microinjection system (Transjector 5246, Micromanipulator 5171, Eppendorf-Netheler-Hintz, Hamburg, Germany). Injection parameters were: injection pressure: 80 hPa, compensatory pressure: 40 hPa, duration of injection: 0.5 sec, velocity of pipette: 700 μm/sec, pipette angle: 45°. Injections were performed into the upper part of the cell.

[3] = test system: cADPR-mediated Ca^2+-signal; assay: Co-injection of NAADP^+ with cADPR in Jurkat T-lymphocytes
Description: as §1
(§3) Batches of 10^7 Jurkat T cells were loaded with Fura2/AM as described (Guse et al., 1993). Fura2-loaded cells (10^7 cells/5 ml) were kept at room temperature until use. Glass coverslips were coated first with bovine serum albumin (5 mg/ml), and then with poly-L-lysine (0.1 mg/ml). Small chambers consisting of a rubber O-ring were sealed on the coverslips by silicon grease. Then 90 μl of extracellular buffer (140 mM NaCl, 5 mM KCl, 1 mM MgSO4, 1 mM CaCl2, 20 mM Hepes, 1 mM NaH2PO4, 5.5 mM glucose, pH 7.4) was added, followed by addition of 10 μl cell suspension. The coverslip was mounted on the stage of an inverted microscope (Axiovert 100, Zeiss, Oberkochingen, Germany). […] Ratio images (340/380) were constructed pixel by pixel, and changes in the ratio over time were measured by applying “regions-of-interest” on individual cells. […]

[4] = test system: Ins(1,4,5)P3-mediated Ca^2+-release; assay: Co-injection of NAADP^+ with Ins(1,4,5)P3 in Jurkat T-lymphocytes
Description: as §2, §3

[5] = test system: OKT3-mediated Ca^2+-signaling (TCR/CD3 complex); assay: Effect of microinjected NAADP^+ on OKT3-induced Ca^2+ signaling in single Jurkat T-lymphocytes
Description: Jurkat T-lymphocytes were loaded with Fura2/AM and ratiometric Ca^2+ imaging and parallel microinjection in the presence of 1 mM extracellular Ca^2+ was carried out as detailed under ‘Experimental Procedures’. The cells were injected with different concentrations of NAADP^+ and then OKT3(10 μg/ml) was added. Injection of intracellular buffer (A), NAADP^+ (50 nM [B] and 10 μM [C]), and addition of OKT3 is indicated by arrows. Data are presented as a typical tracing from one individual cell, for each condition at least 3 experiments were carried out.
as §3

Jurkat T cells [6] = assay: Ca^2+ signals in single intact Jurkat T-lymphocytes microinjected with compound (ratiometric Fura2 Ca^2+ imaging); conditions: 50 nM microinjected; nominal Ca^2+-free buffer; data not shown
[7] = Ins(1,4,6)PS3 40 μM co-injected with NAADP^+ 50 nM, vs NAADP^+ alone

With `OC1C(O)C(OP(O)(O)=S)C(OP(O)(O)=S)C(O)C1OP(O)(O)=S` (stereo not drawn) [Ins(1,4,6)PS3] the “decay of the initial Ca^2+ peak of NAADP^+-mediated signal” value [1, 7] was “faster decay” and the “effect on initial Ca^2+ peak of NAADP^+-mediated signal” value [1, 7] was “partial reduction”.
For `Nc1ncnc2c1ncn2[C@@H]1O[C@H](COP(=O)(O)OP(=O)(O)OCC2OC([n+]3cccc(C(=O)[O-])c3)C(O)C2O)[C@@H](O)[C@H]1OP(=O)(O)O` (stereo in doubt) [NAADP^+, nicotinic acid adenine dinucleotide phosphate], the “longlasting Ca^2+-signal as measured at 400 s” value (Jurkat T cells [2]; 100 nM, Ca^2+ plateau, FIG. 2B) was “only minor changes”, the “optimal concentration for the initial Ca^2+-peak (bell shaped dose response curve)” value (Jurkat T cells [2]; Ca^2+ peak at 80 sec, FIG. 2A) was 100 nM and the “Ca^2+ signal after microinjection” value (Jurkat T cells [2]; pipette concentration 0.1 nM) was “without effect in most of the cells”. The “Ca^2+ signal after microinjection” value (Jurkat T cells [2]; pipette concentration 1 nM) was “without effect in most of the cells”, the “Ca^2+ signal after microinjection” value (Jurkat T cells [2]; pipette concentration 10 nM) was “stimulated repetitive, longlasting Ca^2+ spiking of low amplitude” and the “Ca^2+ signal after microinjection” value (Jurkat T cells [2]; pipette concentration 10 nM, listed as NAADP+) was “evokes repetitive and longlasting Ca^2+ oscillations of low amplitude”. For the same molecule, the “Ca^2+ signal after microinjection” value (Jurkat T cells [2]; pipette concentration 50 nM) was “an initial, rapidly occurring Ca^2+-peak with a high amplitude”, the “Ca^2+ signal after microinjection” value (Jurkat T cells [2]; pipette concentration 50 nM, listed as NAADP+) was “a rapid and high initial Ca^2+ peak followed by trains of smaller Ca^2+ oscillations” and the “Ca^2+ signal after microinjection” value (Jurkat T cells [2]; pipette concentration 100 nM) was “a rapid and high initial Ca^2+ peak followed by trains of smaller Ca^2+ oscillations”. The “Ca^2+ signal after microinjection” value (Jurkat T cells [2]; pipette concentration 1 μM) was “gradually reduce the initial Ca^2+ peak”, the “Ca^2+ signal after microinjection” value (Jurkat T cells [2]; pipette concentration 10 μM) was “gradually reduce the initial Ca^2+ peak” and the “Ca^2+ signal after microinjection” value (Jurkat T cells [2]; pipette concentration 100 μM) was “no signal was detectable”. The “Ca^2+ signal after microinjection” value (Jurkat T cells [2]; pipette concentration 100 μM, listed as NAADP+) was “complete self-inactivation of Ca^2+-signals”, the “effect on cADPR-mediated Ca^2+ signals” value ([3]; NAADP^+ 50 nM co-injected with cADPR 10 μM) was “did not significantly change” and the “effect on cADPR-mediated Ca^2+-signal” value ([3]; NAADP^+ 10 μM (self-desensitizing) co-injected with cADPR 10 μM) was “massive decrease”. The “Ca^2+ signal on co-injection with Ins(1,4,5)P3” value ([4]; NAADP^+ 50 nM co-injected with Ins(1,4,5)P3 4 μM) was “high initial Ca^2+ peak”, the “effect on Ins(1,4,5)P3-mediated Ca^2+-release” value ([4]; NAADP^+ 10 μM (desensitizing) co-injected with Ins(1,4,5)P3 4 μM) was “almost complete inhibition” and the “effect on OKT3-mediated Ca^2+-signal” value ([5]; NAADP^+ 50 nM microinjected prior to OKT3 10 μg/ml) was “did not significantly change”. For the same molecule, the “effect on OKT3-mediated Ca^2+-signaling” value ([5]; NAADP^+ 10 μM (desensitizing) microinjected before OKT3 10 μg/ml) was “dramatic inhibition” and the “high initial Ca^2+-spike in nominal Ca^2+-free extracellular buffer” value (Jurkat T cells [6]) was “massively reduced”.
For `COc1nc2c(=N)n3cnc2n1C1OC(COP(=O)(O)OP(=O)(O)OCC2OC3C(O)C2O)C(O)C1O` (stereo not drawn) [8-OCH3-cADPR], the “effect on NAADP^+-mediated Ca^2+-signaling” value ([1]; 8-OCH3-cADPR 100 μM co-injected with NAADP^+ 50 nM) was “did not significantly affect”.
In the case of “nicotinamide-adenine dinucleotide phosphate [NADP^+]”, the “Ca^2+ signal after microinjection” value (Jurkat T cells [2]; pipette concentration 50 nM) is reported as “completely without effect”.
